Read-outs that look alike come from different tables or passages of the source. Some results are limits rather than exact numbers.

The text below walks through data of patent US8664226B2, “Compound having 3-heteroarylpyrimidin-4-(3H)-one structure and pharmaceutical preparation containing same” (Kowa Company, Ltd., priority 2009, dated 2014).

The target in one assay is T1, human PPARγ2 (Homo sapiens, UniProt P37231).
T1 construct: the amino acids 182 to 505 of human PPARγ2; expressed in transfected cells; host or cells: COS7 cells
The assay can be described thus: PPARγ activation activity, Gal4 chimera luciferase transfection assay using COS7 cells. In kind it is cell-based. Particulars: for EC50: Gal4-human PPARγ2 LBD chimera, luciferase reporter, 16 hours; for Emax: COS-7, 16 h, maximum activity strength relative to the maximum activity of rosiglitazone, read-out: % MAX vs Rosiglitazone; for maximum activity compared with telmisartan: maximum PPARγ activity, telmisartan 30 to 50% of rosiglitazone under the same condition. The method, then:
The agonistic activity of the compounds of the invention on PPARγ was measured based on the transfection assay using COS7 cells (DS Pharma Biomedical Co., Ltd., Osaka, Japan), which are the cell line derived from the kidney of the African green monkey. COS7 cells were cultured under 5% CO2 concentration, and DMEM medium containing 10% fetal bovine serum, glutamic acid, and antibiotics was used as a medium.
As an expression vector, a chimera in which DNA binding domain of Gal4, which is a yeast transcription factor, and ligand binding domain of human PPAR^γ2 are fused, i.e., a fused product between the amino acids 1 to 147 of Gal4 transcription factor and the amino acids 182 to 505 of human PPARγ2, was used. Furthermore, as a reporter vector, a firefly luciferase containing five copies of Gal4 recognition sequence in the promoter region was used. Plasmid transfection to the cells was performed according to a method which uses jetPEI (trade name, manufactured by Funakoshi Co., Ltd., Tokyo, Japan). Furthermore, β-galactosidase expression vector was employed as an internal standard.
After the transfection of the cells, the medium was replaced with a DMEM medium (containing 1% serum) added with the compound, and the cells were further cultured for 16 hours. After that, the luciferase activity and β-galactosidase activity in the cell lysis solution were measured.
For the present test, dimethyl sulfoxide (DMSO) was used for dissolution and dilution of the test compounds, and during the cell treatment, the DMSO concentration in DMEM medium (containing 1% serum) was adjusted to 0.1%. As a positive compound, rosiglitazone (trade name, manufactured by ALEXIS Corporation, Switzerland) was used. […] The 50% effective concentration of the test compound (EC50, 50% effect concentration) was calculated by using SAS Preclinical Package Ver5.0 (trade name, manufactured by SAS institute Japan Co., Tokyo, Japan), which is a statistical analysis program.

In assay [1] the target is T2, angiotensin II type 1 receptor (Oryctolagus cuniculus, UniProt P34976).
T2 construct: By using a specimen of isolated rabbit blood vessels; from tissue; host or cells: rabbit thoracic aorta ring (New Zealand White, male)
T2 sequence (P34976 1-359): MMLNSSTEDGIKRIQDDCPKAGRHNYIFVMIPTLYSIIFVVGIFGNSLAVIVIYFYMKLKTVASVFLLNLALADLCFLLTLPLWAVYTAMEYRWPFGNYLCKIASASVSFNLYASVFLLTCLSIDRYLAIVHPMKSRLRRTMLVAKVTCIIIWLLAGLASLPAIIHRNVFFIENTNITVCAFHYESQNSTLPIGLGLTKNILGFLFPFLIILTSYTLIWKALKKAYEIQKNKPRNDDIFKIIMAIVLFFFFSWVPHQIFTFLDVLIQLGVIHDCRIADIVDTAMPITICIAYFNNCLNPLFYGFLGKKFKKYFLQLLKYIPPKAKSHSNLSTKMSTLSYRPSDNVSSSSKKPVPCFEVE
Nature of the assay: Angiotensin II antagonistic activity in isolated rabbit blood vessels. As to conditions: angiotensin II (10 nM)-induced contraction of rabbit thoracic aorta ring. The method, then: By using a specimen of isolated rabbit blood vessels, antagonistic activity of the compounds of the invention against angiotensin II type 1 receptor was estimated from a dose-response curve of angiotensin II-induced blood vessel contraction.
During the measurement, the inside temperature of the magnus bath was maintained at 37° C. and the bath was continuously ventilated with a sufficient amount of mixed gas (95% O2 and 5% CO2). The angiotensin II-induced contraction was converted into a relative value (%) that is based on the angiotensin II (10 nM)-induced contraction in the absence of the compounds of each example. From the concentration-response curve obtained therefrom, 50% inhibition concentration (IC50 value) was calculated by using SAS Preclinical Package Ver5.0 (trade name, manufactured by SAS institute Japan Co., Tokyo, Japan), which is a statistical analysis program.

T1 sequence (P37231 182-505): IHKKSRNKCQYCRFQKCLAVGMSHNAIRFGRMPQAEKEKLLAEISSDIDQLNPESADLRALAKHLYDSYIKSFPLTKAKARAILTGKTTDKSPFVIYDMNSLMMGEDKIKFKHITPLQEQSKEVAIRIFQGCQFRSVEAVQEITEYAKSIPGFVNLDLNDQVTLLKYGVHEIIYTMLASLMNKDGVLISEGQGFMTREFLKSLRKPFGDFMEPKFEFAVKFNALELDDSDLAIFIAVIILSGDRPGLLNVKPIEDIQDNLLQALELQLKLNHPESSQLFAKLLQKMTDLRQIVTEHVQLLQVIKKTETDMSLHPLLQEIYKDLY
T1 sequence (P04386 1-147 partner limits assumed): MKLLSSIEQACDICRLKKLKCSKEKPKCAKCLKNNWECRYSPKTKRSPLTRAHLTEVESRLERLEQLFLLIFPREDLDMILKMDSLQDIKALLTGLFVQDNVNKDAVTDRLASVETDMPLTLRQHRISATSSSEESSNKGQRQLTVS

`CCCCc1nc(C)n(-c2ccc(C)cn2)c(=O)c1Cc1ccc(-c2ccccc2-c2nnn[nH]2)cc1` [Example 2, 5-{[2′-(1H-tetrazol-5-yl)biphenyl-4-yl]methyl}-6-butyl-2-methyl-3-(5-methylpyridin-2-yl)pyrimidin-4(3H)-one]: the half-maximal effective concentration (EC50) on human PPARγ2 (COS7 cells, read-out: EC50) worked out at 4150 nM. The Emax on human PPARγ2 (COS7 cells) amounted to 24.1%. Moreover, the IC50 in assay [1] was determined as 84 nM.
`CCCCc1nc(C)n(-c2ccc(OC)cn2)c(=O)c1Cc1ccc(-c2ccccc2-c2nnn[nH]2)cc1` [Example 3, 5-{[2′-(1H-tetrazol-5-yl)biphenyl-4-yl]methyl}-6-butyl-3-(5-methoxypyridin-2-yl)-2-methylpyrimidin-4(3H)-one]: the EC50 at human PPARγ2 (COS7 cells, read-out: EC50) was 3740 nM. The IC50 in assay [1] is 18 nM.
Regarding `CCCCc1nc(C)n(-c2ncccc2F)c(=O)c1Cc1ccc(-c2ccccc2-c2nnn[nH]2)cc1` [Example 4, 5-{[2′-(1H-tetrazol-5-yl)biphenyl-4-yl]methyl}-6-butyl-3-(3-fluoropyridin-2-yl)-2-methylpyrimidin-4(3H)-one], the EC50 on human PPARγ2 (COS7 cells, read-out: EC50) is 1440 nM. For the same compound, in assay [1], the IC50 was 60 nM.
As for `CCCCc1nc(C)n(-c2ccc(F)cn2)c(=O)c1Cc1ccc(-c2ccccc2-c2nnn[nH]2)cc1` [Example 5, 5-{[2′-(1H-tetrazol-5-yl)biphenyl-4-yl]methyl}-6-butyl-3-(5-fluoropyridin-2-yl)-2-methylpyrimidin-4(3H)-one], the EC50 on human PPARγ2 (COS7 cells, read-out: EC50) was 3660 nM. Besides, the Emax on human PPARγ2 (COS7 cells) is 27.6%. The IC50 in assay [1] was found to be 102 nM.
Taken in the same sequence, the figures for `CCCCc1nc(C)n(-c2ncccc2Cl)c(=O)c1Cc1ccc(-c2ccccc2-c2nnn[nH]2)cc1` [Example 6, 5-{[2′-(1H-tetrazol-5-yl)biphenyl-4-yl]methyl}-6-butyl-3-(3-chloropyridin-2-yl)-2-methylpyrimidin-4(3H)-one] were 1690 nM, 20.3% and 24 nM.
`CCCCc1nc(C)n(-c2ccc(Cl)cn2)c(=O)c1Cc1ccc(-c2ccccc2-c2nnn[nH]2)cc1` [Example 7, 5-{[2′-(1H-tetrazol-5-yl)biphenyl-4-yl]methyl}-6-butyl-3-(5-chloropyridin-2-yl)-2-methylpyrimidin-4(3H)-one]: on human PPARγ2 (COS7 cells, read-out: EC50), the 50% effective concentration (EC50) turned out to be 1520 nM. Further, the Emax at human PPARγ2 (COS7 cells) was 54.6%. Besides, the “maximum activity compared with telmisartan” value on human PPARγ2 is on record as “the same or greater than that of telmisartan”. The compound further gave a concentration for half-maximal inhibition (IC50) in assay [1] of 431 nM.
Turning to `CCCCc1nc(C)n(-c2cccc(Br)n2)c(=O)c1Cc1ccc(-c2ccccc2-c2nnn[nH]2)cc1` [Example 8, 5-{[2′-(1H-tetrazol-5-yl)biphenyl-4-yl]methyl}-3-(6-bromopyridin-2-yl)-6-butyl-2-methylpyrimidin-4(3H)-one], the EC50 at human PPARγ2 (COS7 cells, read-out: EC50) amounted to 880 nM. Moreover, the Emax at human PPARγ2 (COS7 cells) turned out to be 27.7%. In assay [1], the IC50 is 395 nM.
Turning to `CCCCc1nc(C)n(-c2cc(C(F)(F)F)ccn2)c(=O)c1Cc1ccc(-c2ccccc2-c2nnn[nH]2)cc1` [Example 10, 5-{[2′-(1H-tetrazol-5-yl)biphenyl-4-yl]methyl}-6-butyl-2-methyl-3-[4-(trifluoromethyl)pyridin-2-yl]pyrimidin-4(3H)-one], at human PPARγ2 (COS7 cells, read-out: EC50), the EC50 came to 3890 nM. Moreover, in assay [1], the IC50 stood at 181 nM.
In assay [1], `CCCCc1nc(C)n(-c2ncc(OCCCC(=O)NCCC)cn2)c(=O)c1Cc1ccc(-c2ccccc2-c2nnn[nH]2)cc1` [Example 50, 4-{2-{5-{[2′-(1H-tetrazol-5-yl)biphenyl-4-yl]methyl}-4-butyl-2-methyl-6-oxopyrimidin-1(6H)-yl}pyrimidin-5-yloxy}-N-propylbutanamide] came in with an IC50 of 14 nM.
The compound `CCCCc1nc(C)n(-c2ncc(OCCCC(=O)NC(C)C)cn2)c(=O)c1Cc1ccc(-c2ccccc2-c2nnn[nH]2)cc1` [Example 51, 4-{2-{5-{[2′-(1H-tetrazol-5-yl)biphenyl-4-yl]methyl}-4-butyl-2-methyl-6-oxopyrimidin-1(6H)-yl}pyrimidin-5-yloxy}-N-isopropylbutanamide] came in with an IC50 in assay [1] of 5.8 nM. This IC50 lies about 2.4-fold lower than the previous one.
The same measure, in the same setting: in the case of `CCCCc1nc(C)n(-c2ncc(OCCCCC(N)=O)cn2)c(=O)c1Cc1ccc(-c2ccccc2-c2nnn[nH]2)cc1` [Example 53, 5-{2-{5-{[2′-(1H-tetrazol-5-yl)biphenyl-4-yl]methyl}-4-butyl-2-methyl-6-oxopyrimidin-1(6H)-yl}pyrimidin-5-yloxy}pentanamide] it was 8.5 nM; in that of `CCCCc1nc(C)n(-c2ncc(OCCCCC(=O)NCC)cn2)c(=O)c1Cc1ccc(-c2ccccc2-c2nnn[nH]2)cc1` [Example 54, 5-{2-{5-{[2′-(1H-tetrazol-5-yl)biphenyl-4-yl]methyl}-4-butyl-2-methyl-6-oxopyrimidin-1(6H)-yl}pyrimidin-5-yloxy}-N-ethylpentanamide], 25 nM.
Take `CCCCc1nc(C)n(-c2ncc(OCCCCC(=O)N(CC)CC)cn2)c(=O)c1Cc1ccc(-c2ccccc2-c2nnn[nH]2)cc1` [Example 55, 5-{2-{5-{[2′-(1H-tetrazol-5-yl)biphenyl-4-yl]methyl}-4-butyl-2-methyl-6-oxopyrimidin-1(6H)-yl}pyrimidin-5-yloxy}-N,N-diethylpentanamide]: the IC50 in assay [1] is < 100 nM.
Still for that read-out and setting: in the case of `CCCCc1nc(C)n(-c2ncc(OCCCNC(C)=O)cn2)c(=O)c1Cc1ccc(-c2ccccc2-c2nnn[nH]2)cc1` [Example 56, N-{3-{2-{5-{[2′-(1H-tetrazol-5-yl)biphenyl-4-yl]methyl}-4-butyl-2-methyl-6-oxopyrimidin-1 (6H)-yl}pyrimidin-5-yloxy}propyl}acetamide] it was 2.4 nM; in that of `CCCCc1nc(C)n(-c2ncc(OCCCNS(C)(=O)=O)cn2)c(=O)c1Cc1ccc(-c2ccccc2-c2nnn[nH]2)cc1` [Example 57, N-{3-{2-{5-{[2′-(1H-tetrazol-5-yl)biphenyl-4-yl]methyl}-4-butyl-2-methyl-6-oxopyrimidin-1(6H)-yl}pyrimidin-5-yloxy}propyl}methane sulfonamide], 3.6 nM; in that of `CCCCc1nc(C)n(-c2cnccn2)c(=O)c1Cc1ccc(-c2ccccc2-c2nnn[nH]2)cc1` [Example 60, 5-{[2′-(1H-tetrazol-5-yl)biphenyl-4-yl]methyl}-6-butyl-2-methyl-3-(pyrazin-2-yl)pyrimidin-4 (3H)-one], 8.1 nM.
In turn, `CCCCc1nc(C)n(-c2nnc(C)c(C)n2)c(=O)c1Cc1ccc(-c2ccccc2-c2nnn[nH]2)cc1` [Example 61, 5-{[2′-(1H-tetrazol-5-yl)biphenyl-4-yl]methyl}-6-butyl-3-(5,6-dimethyl-1,2,4-triazin-3-yl)-2-methylpyrimidin-4 (3H)-one] yielded an IC50 in assay [1] of 25 nM. Compared with the last compound, the IC50 is about 3.1-fold higher.
On the same count and under the same terms, in the case of `CCCCc1nc(C)n(-c2ncn(C)n2)c(=O)c1Cc1ccc(-c2ccccc2-c2nnn[nH]2)cc1` [Example 65, 5-{[2′-(1H-tetrazol-5-yl)biphenyl-4-yl]methyl}-6-butyl-2-methyl-3-(1-methyl-1H-1,2,4-triazol-3-yl)pyrimidin-4 (3H)-one] it was 23 nM.
Regarding `CCCCc1nc(C)n(-c2nc3ccccc3s2)c(=O)c1Cc1ccc(-c2ccccc2-c2nnn[nH]2)cc1` [Example 70, 5-{[2′-(1H-tetrazol-5-yl)biphenyl-4-yl]methyl}-3-(benzothiazol-2-v1)-6-butyl-2-methylpyrimidin-4 (3H)-one], at human PPARγ2 (COS7 cells, read-out: EC50), the 50% effective concentration (EC50) is 690 nM. The Emax on human PPARγ2 (COS7 cells) is 39.7%. For the same compound, on human PPARγ2, the “maximum activity compared with telmisartan” value is “the same or greater than that of telmisartan”.
With `CCCc1nc2c(C)cc(-c3nc4ccccc4n3C)cc2n1Cc1ccc(-c2ccccc2C(=O)O)cc1` [telmisartan, reference compound], the Emax on human PPARγ2 (COS7 cells) was in the range of 30 to 50%. In addition, on human PPARγ2 (EC50, COS7 cells), the EC50 lay in the range of 1000 to 5000 nM.

One may read the EC50 as the concentration that produces a half-maximal response. A word on the IC50: it is the concentration that gives 50% inhibition. Read a low IC50 as greater potency.
